The source of these data is PubChem BioAssay AID248 (DTP/NCI, 2004).

The assay deals with L1210 leukemia ip in BDF1 mice, survival T/C. The experiment in a line: NCI In Vivo Anticancer Drug Screen. Data for tumor model L1210 Leukemia (intraperitoneal) in B6D2F1 (BDF1) mice. The following applies: endpoint: mean survival time, higher = longer survival. Put shortly: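 Tumor was transplanted into mice, which were then dosed with test compound or vehicle alone. Survival was recorded for each group, and the treated figure was expressed relative to the control figure.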

[1] abbreviates: dose: 50.0 mg/kg/injection, schedule: Q01DX009 (ip), vehicle: saline.
[2] abbreviates: dose: 100.0 mg/kg/injection, schedule: Q01DX009 (ip), vehicle: saline.
[3] abbreviates: dose: 200.0 mg/kg/injection, schedule: Q01DX009 (ip), vehicle: saline.
Setting [4] is: dose: 100.0 mg/kg/injection, schedule: Q04DX002 (ip), vehicle: saline with Tween-80.
Where [5] appears, read: dose: 400.0 mg/kg/injection, schedule: Q04DX002 (ip), vehicle: saline with Tween-80.
Setting [6] is: dose: 100.0 mg/kg/injection, schedule: Q01DX009 (ip), vehicle: Klucel (hydroxypropylcellulose) (HPC).
[7] abbreviates: dose: 100.0 mg/kg/injection, schedule: Q04DX003 (ip), vehicle: Klucel (hydroxypropylcellulose) (HPC).
The mark [8] stands for this setting: dose: 200.0 mg/kg/injection, schedule: Q01DX009 (ip), vehicle: Klucel (hydroxypropylcellulose) (HPC).
The mark [9] stands for this setting: dose: 200.0 mg/kg/injection, schedule: Q04DX003 (ip), vehicle: Klucel (hydroxypropylcellulose) (HPC).
The mark [10] stands for this setting: dose: 400.0 mg/kg/injection, schedule: Q01DX009 (ip), vehicle: Klucel (hydroxypropylcellulose) (HPC).
Setting [11] is: dose: 400.0 mg/kg/injection, schedule: Q04DX003 (ip), vehicle: Klucel (hydroxypropylcellulose) (HPC).

Structures are written as SMILES. Several values for one entry are separate records, joined by “and”; a condition that tells them apart may be missing. Equal entries are not always repeated. Inconclusive results and toxic doses are left out.

Turning to `C=C1C(=O)N(C)C(C(=O)OC)CC1(O)C(CC)C(=O)OC` (configuration not stated), the T/C by setting is: (dose: 18.7 mg/kg/injection, schedule: Q01DX001 (ip), vehicle: saline) 94 % of control; (dose: 37.5 mg/kg/injection, schedule: Q01DX001 (ip), vehicle: saline) 98 % of control; (dose: 75.0 mg/kg/injection, schedule: Q01DX001 (ip), vehicle: saline) 117 % of control; (dose: 150.0 mg/kg/injection, schedule: Q01DX001 (ip), vehicle: saline) 102 % of control.
Regarding `C=C1C(=O)OC2C1CCC(C)C1C=CC(=O)C12C` (configuration not stated), the T/C under setting [1] was 98 % of control, the T/C under setting [2] was 96 % of control and the T/C under setting [3] is 98 % of control.
Regarding `O=C1OC(c2ccc([N+](=O)[O-])cc2)=N/C1=C\c1ccc2c(c1)OCO2`, the T/C was 92 % of control under setting [4] and 87 % of control under setting [5].
Take `NOCc1cc2c(cc1Cl)OCO2`: the T/C (dose: 100.0 mg/kg/injection, schedule: Q01DX001 (ip), vehicle: Klucel (hydroxypropylcellulose) (HPC)) is 94 % of control; the T/C under setting [6] is 94 % of control; the T/C under setting [7] was 90 % of control; the T/C (dose: 200.0 mg/kg/injection, schedule: Q01DX001 (ip), vehicle: Klucel (hydroxypropylcellulose) (HPC)) was 88 % of control; the T/C under setting [8] is 92 % of control; the T/C under setting [9] is 96 % of control. The T/C runs as follows: (dose: 400.0 mg/kg/injection, schedule: Q01DX001 (ip), vehicle: Klucel (hydroxypropylcellulose) (HPC)) 100 % of control; under setting [10], 86 % of control; under setting [11], 96 % of control.
As for `CSc1ccccc1C[P+](c1ccccc1)(c1ccccc1)c1ccccc1`, the T/C (dose: 1.56 mg/kg/injection, schedule: Q01DX009 (ip), vehicle: saline with Tween-80) was 102 % of control; the T/C (dose: 3.13 mg/kg/injection, schedule: Q01DX009 (ip), vehicle: saline with Tween-80) is 103 % of control; the T/C (dose: 6.25 mg/kg/injection, schedule: Q01DX009 (ip), vehicle: saline with Tween-80) was 105 % of control.
As for `O=C(N/N=C/c1cccc(F)c1)c1ccccc1Cl`, the T/C is, setting by setting: (dose: 50.0 mg/kg/injection, schedule: Q01DX009 (ip), vehicle: saline with Tween-80) 91 % of control; (dose: 100.0 mg/kg/injection, schedule: Q01DX009 (ip), vehicle: saline with Tween-80) 102 % of control; (dose: 200.0 mg/kg/injection, schedule: Q01DX009 (ip), vehicle: saline with Tween-80) 87 % of control.
With `CC1(C)N=C(N)N=C(N)N1c1ccc(Cl)c(Cl)c1`, the T/C was 111 % of control (dose: 1.0 mg/kg/injection, schedule: Q01DX009 (ip), vehicle: saline); 109 % of control (dose: 1.25 mg/kg/injection, schedule: Q01DX009 (ip), vehicle: saline); 109 % of control and 117 % of control (dose: 2.5 mg/kg/injection, schedule: Q01DX009 (ip), vehicle: saline); 105 % of control (dose: 5.0 mg/kg/injection, schedule: Q01DX001 (ip), vehicle: saline); 119 % of control (dose: 5.0 mg/kg/injection, schedule: Q01DX009 (ip), vehicle: saline); 102 % of control and 106 % of control (dose: 10.0 mg/kg/injection, schedule: Q01DX001 (ip), vehicle: saline). The T/C is, setting by setting: (dose: 10.0 mg/kg/injection, schedule: Q01DX009 (ip), vehicle: saline) 117 % of control and 118 % of control; (dose: 20.0 mg/kg/injection, schedule: Q01DX001 (ip), vehicle: saline) 105 % of control and 106 % of control; (dose: 20.0 mg/kg/injection, schedule: Q01DX009 (ip), vehicle: saline) 92 % of control; (dose: 36.0 mg/kg/injection, schedule: Q01DX009 (ip), vehicle: saline) 88 % of control; (dose: 40.0 mg/kg/injection, schedule: Q01DX001 (ip), vehicle: saline) 107 % of control and 92 % of control.
On to `Ic1ncnc2nc[nH]c12`, for which the T/C (dose: 56.0 mg/kg/injection, schedule: Q01DX Z (ip), vehicle: carboxymethylcellulose (CMC)) is 104 % of control; the T/C (dose: 62.5 mg/kg/injection, schedule: Q01DX Z (ip), vehicle: carboxymethylcellulose (CMC)) is 115 % of control; the T/C under setting [6] is 118 % of control; the T/C (dose: 100.0 mg/kg/injection, schedule: Q04DX003 (ip), vehicle: other) was 106 % of control; the T/C (dose: 112.0 mg/kg/injection, schedule: Q01DX Z (ip), vehicle: carboxymethylcellulose (CMC)) was 121 % of control; the T/C (dose: 125.0 mg/kg/injection, schedule: Q01DX Z (ip), vehicle: carboxymethylcellulose (CMC)) was 110 % of control. Further, the T/C is 122 % of control (dose: 132.0 mg/kg/injection, schedule: Q01DX009 (ip), vehicle: saline); 119 % of control under setting [8]; 120 % of control under setting [3]; 103 % of control (dose: 200.0 mg/kg/injection, schedule: Q04DX003 (ip), vehicle: other); 151 % of control (dose: 300.0 mg/kg/injection, schedule: Q01DX009 (ip), vehicle: Klucel (hydroxypropylcellulose) (HPC)); 103 % of control (dose: 400.0 mg/kg/injection, schedule: Q04DX003 (ip), vehicle: other).
On to `CC(O)c1ccc(Cl)c(Cl)c1` (configuration not stated), for which the T/C is 91 % of control under setting [6]; 98 % of control under setting [7]; 90 % of control under setting [8]; 109 % of control under setting [9]; 101 % of control under setting [10]; 104 % of control under setting [11].
In the case of `CCN(CC)CCCOC(=O)c1ccc(NC(C)(C)[N+](=O)[O-])cc1`, the T/C reads like this: (dose: 25.0 mg/kg/injection, schedule: Q01DX009 (ip), vehicle: saline) 98 % of control; under setting [1], 91 % of control; (dose: 100.0 mg/kg/injection, schedule: Q01DX001 (ip), vehicle: saline) 90 % of control.
`CC1CC(C(=O)O)Cc2c1nc1ccccc1c2C(=O)O` (configuration not stated): the T/C is, setting by setting: under setting [4], 100 % of control; (dose: 200.0 mg/kg/injection, schedule: Q04DX002 (ip), vehicle: saline with Tween-80) 93 % of control; under setting [5], 96 % of control.
Consider `CSc1nc(-c2ccc([N+](=O)[O-])cc2)oc1/N=C/c1ccc([N+](=O)[O-])cc1`, for which the T/C runs as follows: (dose: 100.0 mg/kg/injection, schedule: Q04DX002 (ip), vehicle: Klucel (hydroxypropylcellulose) (HPC)) 96 % of control; (dose: 200.0 mg/kg/injection, schedule: Q04DX002 (ip), vehicle: Klucel (hydroxypropylcellulose) (HPC)) 96 % of control; (dose: 400.0 mg/kg/injection, schedule: Q04DX002 (ip), vehicle: Klucel (hydroxypropylcellulose) (HPC)) 96 % of control.
Take `O=C1c2cccc3cccc(c23)C1(c1ccccc1)c1ccccc1`: the T/C runs as follows: under setting [2], 100 % of control; under setting [3], 100 % of control; (dose: 400.0 mg/kg/injection, schedule: Q01DX009 (ip), vehicle: saline) 111 % of control.
As for `COc1cccc2c1C(=O)CC2`, the T/C runs as follows: (dose: 25.0 mg/kg/injection, schedule: Q01DX009 (ip), vehicle: acetone) 101 % of control; (dose: 50.0 mg/kg/injection, schedule: Q01DX009 (ip), vehicle: acetone) 106 % of control; (dose: 100.0 mg/kg/injection, schedule: Q01DX009 (ip), vehicle: acetone) 103 % of control; (dose: 100.0 mg/kg/injection, schedule: Q04DX003 (ip), vehicle: saline with Tween-80) 87 % of control.
Consider `Nc1nc(S)c(N)c(=S)[nH]1`, for which the T/C is 105 % of control (dose: 9.5 mg/kg/injection, schedule: Q01DX001 (ip), vehicle: carboxymethylcellulose (CMC)); 94 % of control (dose: 19.0 mg/kg/injection, schedule: Q01DX001 (ip), vehicle: carboxymethylcellulose (CMC)); 97 % of control (dose: 38.0 mg/kg/injection, schedule: Q01DX001 (ip), vehicle: carboxymethylcellulose (CMC)).
